Among the test systems are CAKI-1 renal; HCT-116 colon; HT29 colon; LOX IMVI melanoma; MALME-3M melanoma; NCI-H226 lung; SK-MEL-2 melanoma; SK-MEL-5 melanoma; TK-10 renal; UACC-257 melanoma.
What all share (test): NCI tumour cell line growth inhibition, 48 h

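96-well plates; 48 h exposure; 5 concentrations. Endpoints by linear interpolation between flanking doses. Not reached: highest tested concentration assigned. At the GI50, growth is halved. TGI is the concentration that stops growth completely.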

With `CC1(C)CC[C@]2(C(=O)O)CC[C@]3(C)C(=CC[C@@H]4[C@@]5(C)C/C(=C/c6ccco6)C(=O)C(C)(C)[C@@H]5CC[C@]43C)[C@@H]2C1`, the GI50 was 2.72 µM with CAKI-1 renal; 2.9 µM in the test on HCT-116 colon; 3.14 µM in the test with HT29 colon; 2.46 µM in the test with LOX IMVI melanoma; 3.99 µM in the test on MALME-3M melanoma; 3.42 µM with NCI-H226 lung. The GI50 was 2.99 µM in the test on SK-MEL-2 melanoma, 2.51 µM with SK-MEL-5 melanoma, 6.11 µM in the test on TK-10 renal and 6.24 µM in the test with UACC-257 melanoma. Moreover, the TGI is 15.7 µM with CAKI-1 renal; 12 µM in the test on HCT-116 colon; 14.1 µM in the test on HT29 colon; 6.77 µM with LOX IMVI melanoma; 16.6 µM in the test with MALME-3M melanoma; 19.5 µM with NCI-H226 lung. Further, the TGI in the test on SK-MEL-2 melanoma is 11.4 µM; with SK-MEL-5 melanoma, 8.74 µM; in the test with TK-10 renal, 89.8 µM; with UACC-257 melanoma, 35.6 µM.
Take `Nc1nc(=S)[nH]c(C(=O)Nc2nccs2)c1-c1ccccc1`: the TGI in the test with CAKI-1 renal, in the test on HCT-116 colon, in the test on HT29 colon, in the test with LOX IMVI melanoma, with MALME-3M melanoma and in the test on NCI-H226 lung was above 100 µM each time. The TGI with SK-MEL-2 melanoma, with SK-MEL-5 melanoma, in the test with TK-10 renal and with UACC-257 melanoma was above 100 µM throughout.
In the case of `COc1cc(/C=C2\C(=O)N(C)c3ccccc32)cc(OC)c1OC`, the GI50 is 17.1 µM in the test on CAKI-1 renal; 11 µM in the test with HCT-116 colon; 14.7 µM in the test on HT29 colon; 11.1 µM in the test on LOX IMVI melanoma; 82.7 µM in the test on MALME-3M melanoma; 19.1 µM with NCI-H226 lung. For the same molecule, the GI50 in the test with SK-MEL-2 melanoma is 14.3 µM; with SK-MEL-5 melanoma, 10.1 µM; in the test on TK-10 renal, 31.1 µM; with UACC-257 melanoma, 21.4 µM. Further, the TGI is 80.9 µM with CAKI-1 renal; 30.7 µM with HCT-116 colon; above 100 µM in the test with HT29 colon; 26.7 µM in the test on LOX IMVI melanoma; above 100 µM in the test on MALME-3M melanoma; 52.4 µM in the test on NCI-H226 lung. The TGI in the test on SK-MEL-2 melanoma is 45.8 µM; with SK-MEL-5 melanoma it was 27.8 µM; in the test on TK-10 renal it was above 100 µM; in the test on UACC-257 melanoma it was 55 µM.
As for `NC(N)=N/N=C(/c1ccccc1)c1ccccc1F`, the GI50 is 4.26 µM in the test on CAKI-1 renal; 2.37 µM with HCT-116 colon; 0.628 µM in the test on HT29 colon; 4.69 µM in the test with LOX IMVI melanoma; 8 µM in the test with MALME-3M melanoma; 5.35 µM with NCI-H226 lung. The GI50 with SK-MEL-2 melanoma was 12.2 µM; with SK-MEL-5 melanoma it was 0.911 µM; with TK-10 renal, 9.86 µM; with UACC-257 melanoma it was 15.8 µM. Also, the TGI is 31.4 µM in the test with CAKI-1 renal; 12.3 µM with HCT-116 colon; 11.5 µM with HT29 colon; 19.9 µM in the test on LOX IMVI melanoma; 25.6 µM in the test on MALME-3M melanoma; 22 µM in the test on NCI-H226 lung. Moreover, the TGI with SK-MEL-2 melanoma amounted to 36.7 µM; with SK-MEL-5 melanoma it was 12.5 µM; in the test with TK-10 renal, 47.2 µM; in the test on UACC-257 melanoma it was 38.1 µM.
Take `CCSc1ncc(Br)c(Sc2nc(N)nc3nc[nH]c23)n1`: the GI50 with CAKI-1 renal was 3.43 µM; in the test on HCT-116 colon it was 2.86 µM; in the test on HT29 colon, 5.74 µM; with LOX IMVI melanoma it was 2.39 µM; in the test with MALME-3M melanoma, 1.25 µM; in the test with NCI-H226 lung, 2.59 µM. The GI50 is 4.19 µM in the test on SK-MEL-2 melanoma, 3.8 µM in the test with SK-MEL-5 melanoma, 2.55 µM in the test on TK-10 renal and 12.4 µM with UACC-257 melanoma. The TGI with CAKI-1 renal was above 100 µM; in the test on HCT-116 colon it was above 100 µM; in the test on HT29 colon it was 80.3 µM; in the test on LOX IMVI melanoma it was above 100 µM; with MALME-3M melanoma it was 34.3 µM; with NCI-H226 lung it was above 100 µM. In addition, the TGI is above 100 µM in the test with SK-MEL-2 melanoma, 49.8 µM in the test with SK-MEL-5 melanoma, 25.9 µM in the test with TK-10 renal and above 100 µM in the test on UACC-257 melanoma.
For the molecule `CCCCCCCCCCCCCCC(C)CCC(=O)O` (stereo not given), the TGI in the test on CAKI-1 renal, with HCT-116 colon, in the test with HT29 colon, with LOX IMVI melanoma, in the test with MALME-3M melanoma and in the test with NCI-H226 lung was above 100 µM each time. The TGI in the test with SK-MEL-2 melanoma, with SK-MEL-5 melanoma, with TK-10 renal and in the test with UACC-257 melanoma was above 100 µM in each case.
With `O=C(CC1=Nc2nnc(-c3nnc4n3C(=O)C(CC(=O)C3CC3)=N4)n2C1=O)C1CC1`, the TGI with CAKI-1 renal, in the test on HCT-116 colon, with HT29 colon, in the test on LOX IMVI melanoma, in the test with MALME-3M melanoma and in the test with NCI-H226 lung was above 100 µM in each case. Moreover, the TGI in the test on SK-MEL-2 melanoma, in the test on SK-MEL-5 melanoma, in the test on TK-10 renal and with UACC-257 melanoma was above 100 µM throughout.
`C#Cc1cccc(NC(=O)C2CCCN(C(=O)CCl)C2)c1` (stereo not given): the GI50 was above 82.5 µM in the test with CAKI-1 renal; 45.9 µM in the test with HCT-116 colon; above 82.5 µM with HT29 colon; 14.4 µM with LOX IMVI melanoma; 18.1 µM in the test with MALME-3M melanoma; above 82.5 µM with NCI-H226 lung. Moreover, the GI50 in the test on SK-MEL-2 melanoma was above 82.5 µM; in the test on SK-MEL-5 melanoma, 29.7 µM; with TK-10 renal, above 82.5 µM; in the test on UACC-257 melanoma, above 82.5 µM. Moreover, the TGI in the test on CAKI-1 renal is above 82.5 µM; in the test with HCT-116 colon, above 82.5 µM; in the test with HT29 colon, above 82.5 µM; in the test with LOX IMVI melanoma, 28.7 µM; with MALME-3M melanoma it was 78.6 µM; in the test with NCI-H226 lung, above 82.5 µM. For the same molecule, the TGI in the test with SK-MEL-2 melanoma, with SK-MEL-5 melanoma, in the test with TK-10 renal and in the test on UACC-257 melanoma was above 82.5 µM throughout.
